Columns and labels:
CD45 phosphatase = molecular target: T1, CD45 phosphatase (Homo sapiens, UniProt P08575); assay: CD45 phosphatase activity in THP1 cells; type: cell-based; conditions: peptide added to THP1 cells; FIG. 2
T1 construct: endogenous in cells; host or cells: THP1 cells
T1 sequence (P08575 26-1306): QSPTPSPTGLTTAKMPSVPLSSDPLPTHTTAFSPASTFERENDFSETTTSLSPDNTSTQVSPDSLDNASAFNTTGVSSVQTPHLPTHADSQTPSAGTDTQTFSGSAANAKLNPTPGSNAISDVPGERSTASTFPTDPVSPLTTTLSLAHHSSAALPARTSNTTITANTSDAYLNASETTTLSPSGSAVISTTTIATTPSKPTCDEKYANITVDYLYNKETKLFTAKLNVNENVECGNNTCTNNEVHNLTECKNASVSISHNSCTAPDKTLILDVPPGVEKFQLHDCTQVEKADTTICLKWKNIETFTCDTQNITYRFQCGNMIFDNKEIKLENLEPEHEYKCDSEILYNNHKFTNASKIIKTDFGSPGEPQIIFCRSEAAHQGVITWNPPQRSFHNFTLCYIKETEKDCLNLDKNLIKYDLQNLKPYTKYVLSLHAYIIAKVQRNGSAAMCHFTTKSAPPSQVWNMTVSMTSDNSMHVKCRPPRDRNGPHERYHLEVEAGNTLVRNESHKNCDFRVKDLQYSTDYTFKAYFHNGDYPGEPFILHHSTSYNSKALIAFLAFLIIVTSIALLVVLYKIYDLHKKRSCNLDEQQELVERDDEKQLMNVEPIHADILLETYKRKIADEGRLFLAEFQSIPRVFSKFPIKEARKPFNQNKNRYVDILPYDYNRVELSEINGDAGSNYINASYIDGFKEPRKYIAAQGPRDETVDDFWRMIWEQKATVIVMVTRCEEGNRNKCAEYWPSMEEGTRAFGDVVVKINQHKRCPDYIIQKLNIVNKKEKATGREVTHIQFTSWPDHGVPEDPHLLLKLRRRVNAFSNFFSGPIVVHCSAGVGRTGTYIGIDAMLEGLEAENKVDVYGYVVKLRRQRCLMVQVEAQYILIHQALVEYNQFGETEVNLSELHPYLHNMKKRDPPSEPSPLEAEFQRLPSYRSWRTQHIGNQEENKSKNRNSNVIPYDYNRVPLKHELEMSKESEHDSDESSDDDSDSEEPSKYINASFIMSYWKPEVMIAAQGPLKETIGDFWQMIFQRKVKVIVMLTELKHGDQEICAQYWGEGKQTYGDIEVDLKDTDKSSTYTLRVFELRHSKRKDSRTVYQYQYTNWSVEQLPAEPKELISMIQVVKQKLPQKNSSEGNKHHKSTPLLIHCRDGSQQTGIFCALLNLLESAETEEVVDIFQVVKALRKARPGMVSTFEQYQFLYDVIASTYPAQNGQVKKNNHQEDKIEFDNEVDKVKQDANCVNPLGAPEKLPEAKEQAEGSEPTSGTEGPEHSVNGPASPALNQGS

[1] = tested on: NeuN positive neurons in Layer 5 of the piriform cortex; assay: neuronal survival in 5×FAD mice given exogenous Amyloid-beta 1-42; type: in vivo, mouse; conditions: 5×FAD mice treated with exogenous Amyloid-beta 1-42; ICV via osmotic mini pump, 28 days; FIG. 6
From the text: Fifth, in a modified version of this second in vivo model of Alzheimer's Disease, and using osmotic mini pumps implanted subcutaneously to deliver the peptide through a catheter connected to the brain ventricles, it was shown that the inhibitory peptide SEQ ID NO:1 (peptide #1) reduces neuronal loss in transgenic 5×FAD animals treated with exogenous Amyloid-beta 1-42 (FIG. 6). […] Peptide was directly administered to the brain via a mini osmotic pump implanted subcutaneously and connected to the brain ventricles through a catheter for continuous drug delivery. By the end of the treatment (28 days), brain sections were generated and analyzed by confocal microscope. Quantification of NeuN immunoreactivity in Layer 5 of the piriform cortex, reflective of neuronal number, from the three mouse groups is shown.

[2] = tested on: endogenous Amyloid-beta 1-42 in 5×FAD mice; assay: endogenous amyloid-beta 1-42 in brains of 5×FAD mice; type: in vivo, mouse; conditions: ICV via osmotic mini pump, 28 days, versus vehicle, FIG. 5A/5B
From the text: Fourth, by leveraging a second in vivo model of microglia-mediated amyloid uptake in the mouse brain, and using osmotic mini pumps implanted subcutaneously to deliver the peptide through a catheter connected to the brain ventricles, it was shown that the inhibitory peptide SEQ ID NO:1 (peptide #1) reduces the amount of endogenous amyloid-beta 1-42 detectable in the brains of 5×FAD animals (FIG. 5A and FIG. 5B). 5×FAD mice express human APP and PSEN1 transgenes that include five AD-linked mutations. These mice recapitulate many AD-related phenotypes and have a relatively early and aggressive presentation. Amyloid plaques, accompanied by gliosis, are seen in mice as young as two months of age. Neuron loss occurs in multiple brain regions, beginning at about 6 months in the areas with the most pronounced amyloidosis. Mice display a range of cognitive and motor deficits.
Peptide was directly administered to the brain via a mini osmotic pump implanted subcutaneously and connected to the brain ventricles through a catheter for continuous drug delivery. By the end of the treatment (28 days), brain sections were generated and analyzed by confocal microscope. A representative image from an animal in each of the three groups is shown (FIG. 5A). Quantification of E610 immunoreactivity in the hippocampus, reflective Amyloid-beta 1-42 levels, from the three mouse groups is shown.

[3] = tested on: exogenous Amyloid-beta 1-42 in mouse brain; assay: exogenous amyloid-beta 1-42 clearance in mouse brain, peptide delivered to brain ventricles by osmotic mini pump; type: in vivo; conditions: ICV via osmotic mini pump, 10 uM solution, approx. 3 ug/kg daily, 28 days, Amyloid-beta 647, confocal microscopy, FIG. 3A/3B
Procedure: Third, by leveraging an in vivo model of microglia-mediated amyloid uptake in the mouse brain, and using osmotic mini pumps implanted subcutaneously to deliver the peptide through a catheter connected to the brain ventricles, it was shown that the inhibitory peptide SEQ ID NO:1 (peptide #1) reduces the amount of exogenous amyloid-beta 1-42 detectable in the brains of animals (FIG. 3A and FIG. 3B). 10 uM peptide solutions, containing SEQ ID NO: 1 (peptide #1) or SEQ ID NO: 2 (peptide #4), were added to osmotic mini pumps to permit daily delivery of approximately 5 ul of dosing solution or 3 ug/kg of peptide. A fluorescently labelled analog of amyloid beta 1-42 (Amyloid-beta 647) was delivered via ICV infusion. Confocal microscopy was later used to quantify signal in hippocampal sections. […] By the end of the treatment (28 days), brain sections were performed and analyzed by confocal microscope.
Hippocampus areas are shown of the three treated mice (FIG. 3A). Quantification of Amyloid-beta 1-42 in the hippocampus from the three mouse groups are shown with a marked decrease of Amyloid-beta 1-42 in mice that received Peptide #1 but not those that were treated with Peptide #4 (FIG. 3B). […] By the end of the treatment (28 days), brain sections were analyzed by confocal microscope.

[4] = molecular target: T2, interaction between CD33 and CD45 (Homo sapiens, UniProt P08575); assay: proximity ligation assay of CD33-CD45 interaction in THP1 cells; type: cell-based; conditions: human myeloid cell line THP1; peptide 0-0.1 mM; FIG. 1
T2 construct: in the human myeloid cell line THP1 using the proximity ligation assay; endogenous in cells; host or cells: THP1 (human myeloid cell line)
T2 sequence (P08575 26-1306): T1 sequence (P08575 26-1306)
From the text: To test if the binding interaction between CD33 and any of its ligands is involved in AD pathogenesis, a 12-mer peptide (RMESKTEKWMER; SEQ ID NO: 1) was designed based on the structure of the sialic-acid binding domain of siglecs (Sialic acid-binding immunoglobulin-type lectins).

[5] = tested on: exogenous Amyloid-beta 1-42 in mouse brain; assay: exogenous amyloid-beta 1-42 clearance in mouse brain, peptide delivered subcutaneously; type: in vivo; conditions: peptide subcutaneous via pump, A-beta ICV, 28 days, confocal microscopy, FIG. 4
Procedure: Hippocampus areas are shown of the three treated mice (FIG. 3A). Quantification of Amyloid-beta 1-42 in the hippocampus from the three mouse groups are shown with a marked decrease of Amyloid-beta 1-42 in mice that received Peptide #1 but not those that were treated with Peptide #4 (FIG. 3B). […] The fluorescent labelled A-beta (red) was directly administered to the brain via a mini osmotic pump implanted subcutaneously and connected to the brain ventricles through a catheter for continuous drug delivery. The peptide (SEQ ID NO: 1) was delivered subcutaneously via another pump. By the end of the treatment (28 days), brain sections were analyzed by confocal microscope.

Row | Sequence | CD45 phosphatase activity (CD45 phosphatase) | neuronal survival (NeuN immunoreactivity in Layer 5 of the piriform cortex) [1] | amount of endogenous Amyloid-beta 1-42 (E610 immunoreactivity in hippocampus) [2] | amount of exogenous Amyloid-beta 1-42 in hippocampus [3] | interaction between CD33 and CD45 (proximity ligation assay) [4] | amount of exogenous Amyloid-beta 1-42 in brain parenchyma [5]
1 | MESKTEKWMERI [SEQ ID NO: 2, reference compound] | does not | – | – | – | – | –
2 | RMESKTEKWMER [SEQ ID NO: 1] | leads to an increase in CD45 phosphatase activity | increased neuronal survival in vivo | decreases the amount of endogenous Amyloid-beta 1-42 in vivo | decreases the amount of exogenous Amyloid-beta 1-42 in vivo | reduces the interaction between CD33 and CD45 | decreases the amount of exogenous Amyloid-beta 1-42 in brain

— patent US20230331780A1, “COMPOSITIONS AND METHODS FOR THE TREATMENT OF ALZHEIMER'S DISEASE” (The Trustees of Columbia University in the City of New York, priority 2020, published 2023)
